Measurements published in ChEMBL document CHEMBL1201862, “PubChem BioAssay data set” (2004).
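In this assay, cells in 96-well plates receive the compound at five concentrations for 48 hours. Endpoints are linearly interpolated between the surrounding concentrations. GI50: concentration for 50% inhibition of growth.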 The source made the active and inactive calls. Cut-off read from the data, not from the text of the source: active = GI50 up to about 1.1 µM and inactive = higher.

Experiments:
Test in all cases: growth of human tumour cells (NCI), 48 h
A498 = system: A498
A549 = system: A549
ACHN = system: ACHN
BT-549 = system: BT-549
CCRF-CEM = system: CCRF-CEM
EKVX = system: EKVX
HCC 2998 = system: HCC 2998
HOP-62 = system: HOP-62
HT-29 = system: HT-29
IGROV-1 = system: IGROV-1
LOX IMVI = system: LOX IMVI
MCF7 = system: MCF7
Malme-3M = system: Malme-3M
NCI-H226 = system: NCI-H226
OVCAR-3 = system: OVCAR-3
PC-3 = system: PC-3
SF-268 = system: SF-268
SK-MEL-28 = system: SK-MEL-28
SK-MEL-5 = system: SK-MEL-5
SNB-75 = system: SNB-75

Row | Structure (SMILES) | GI50 (A498) | GI50 (A549) | GI50 (ACHN) | GI50 (BT-549) | GI50 (CCRF-CEM) | GI50 (EKVX) | GI50 (HCC 2998) | GI50 (HOP-62) | GI50 (HT-29) | GI50 (IGROV-1) | GI50 (LOX IMVI) | GI50 (MCF7) | GI50 (Malme-3M) | GI50 (NCI-H226) | GI50 (OVCAR-3) | GI50 (PC-3) | GI50 (SF-268) | GI50 (SK-MEL-28) | GI50 (SK-MEL-5) | GI50 (SNB-75)
1 | C/C=C/[C@H]1O[C@@](O)([C@@H](C)[C@H](O)[C@H](C)[C@H]2OC(=O)/C(OC)=C/C(C)=C/[C@@H](C)[C@@H](O)[C@@H](CC)[C@@H](O)[C@H](C)C/C(C)=C/C=C/[C@@H]2OC)C[C@H](OC2CC(O)C(OC(N)=O)C(C)O2)[C@@H]1C (stereo not given in full) | 18.8 µM (inactive) | < 0.0181 µM (active) | 0.0286 µM (active) | 0.0843 µM (active) | < 0.01 µM (active) | 0.0719 µM (active) | 0.0787 µM (active) | < 0.0249 µM (active) | < 0.01 µM (active) | 0.0458 µM (active) | < 0.01 µM (active) | 0.0293 µM (active) | 0.122 µM (active) | 0.0336 µM (active) | < 0.0181 µM (active) | < 0.01 µM (active) | 0.0447 µM (active) | 0.74 µM (active) | 0.0142 µM (active) | 0.525 µM (active)
2 | NC1=CN2c3ccccc3N(CC(=O)O)C2C=C1 (stereo not given) | > 100 µM (inactive) | > 100 µM (inactive) | > 100 µM (inactive) | > 100 µM (inactive) | > 100 µM (inactive) | > 100 µM (inactive) | > 100 µM (inactive) | > 100 µM (inactive) | > 100 µM (inactive) | > 100 µM (inactive) | > 100 µM (inactive) | > 100 µM (inactive) | > 100 µM (inactive) | > 100 µM (inactive) | > 100 µM (inactive) | > 100 µM (inactive) | > 100 µM (inactive) | > 100 µM (inactive) | > 100 µM (inactive) | > 100 µM (inactive)
3 | CC(C)C(/C=C/c1ccccc1)=N\NC(=S)NN | > 100 µM (inactive) | 51.1 µM (inactive) | 40.6 µM (inactive) | > 96.2 µM (inactive) | 3.93 µM (inactive) | 38 µM (inactive) | 99.1 µM (inactive) | > 84.1 µM (inactive) | 98.2 µM (inactive) | 67.8 µM (inactive) | 16.5 µM (inactive) | 30.6 µM (inactive) | > 100 µM (inactive) | > 70.3 µM (inactive) | 21.3 µM (inactive) | 53.3 µM (inactive) | 20.7 µM (inactive) | > 100 µM (inactive) | 33 µM (inactive) | > 100 µM (inactive)
4 | Cc1c(/C=N/NC(=S)Nc2ccc(Cl)cc2)c(=O)n(-c2ccccc2)n1C | 22.5 µM (inactive) | 33.7 µM (inactive) | 16.1 µM (inactive) | 0.0258 µM (active) | > 75.2 µM (inactive) | 22.6 µM (inactive) | > 100 µM (inactive) | 14.3 µM (inactive) | > 100 µM (inactive) | 16 µM (inactive) | 32.6 µM (inactive) | 19.8 µM (inactive) | > 34.7 µM (inactive) | 18.7 µM (inactive) | > 42 µM (inactive) | > 52.1 µM (inactive) | 15.8 µM (inactive) | > 100 µM (inactive) | 20.1 µM (inactive) | 15.9 µM (inactive)
5 | O=C1C=CC=C/C1=C1\N=C(c2ccccc2OCC(=O)c2ccc(Br)cc2)SS1 | > 100 µM (inactive) | > 100 µM (inactive) | 62.7 µM (inactive) | 13.3 µM (inactive) | > 100 µM (inactive) | 89.9 µM (inactive) | > 100 µM (inactive) | 4.08 µM (inactive) | > 100 µM (inactive) | 9.23 µM (inactive) | > 100 µM (inactive) | > 100 µM (inactive) | > 100 µM (inactive) | 48 µM (inactive) | > 100 µM (inactive) | > 100 µM (inactive) | 32 µM (inactive) | > 100 µM (inactive) | > 100 µM (inactive) | 8.93 µM (inactive)
6 | OC(C#Cc1ccccc1)(c1ccccc1)c1ccccc1 | 27.1 µM (inactive) | 21.2 µM (inactive) | 39 µM (inactive) | 51.1 µM (inactive) | 11.6 µM (inactive) | 23.8 µM (inactive) | 50.6 µM (inactive) | > 100 µM (inactive) | 26.7 µM (inactive) | 43.7 µM (inactive) | 19 µM (inactive) | 24 µM (inactive) | 24.2 µM (inactive) | 26.2 µM (inactive) | 26.7 µM (inactive) | 31.9 µM (inactive) | 21.4 µM (inactive) | 51.1 µM (inactive) | 19 µM (inactive) | 55.3 µM (inactive)
7 | Cc1cc(C)c2c(c1)C/C(=C\c1ccccc1C(=O)O)C2=O | 51.5 µM (inactive) | 68.4 µM (inactive) | > 100 µM (inactive) | 29.9 µM (inactive) | 34.6 µM (inactive) | 82.6 µM (inactive) | 33.5 µM (inactive) | > 100 µM (inactive) | > 100 µM (inactive) | > 100 µM (inactive) | > 100 µM (inactive) | 78.2 µM (inactive) | > 100 µM (inactive) | 56.9 µM (inactive) | 23.7 µM (inactive) | > 100 µM (inactive) | > 100 µM (inactive) | > 100 µM (inactive) | 82.4 µM (inactive) | 75.3 µM (inactive)
8 | COC(=O)C(COC(=O)/C=C/c1ccc(OC(C)=O)c(OC(C)=O)c1)NC(=O)/C=C/c1ccc(OC(C)=O)c(OC(C)=O)c1 (stereo not given) | > 100 µM (inactive) | 40.9 µM (inactive) | 25.6 µM (inactive) | 25.2 µM (inactive) | 16.1 µM (inactive) | 25.5 µM (inactive) | 19.4 µM (inactive) | 23 µM (inactive) | 19.8 µM (inactive) | 43.6 µM (inactive) | 16.3 µM (inactive) | 28.3 µM (inactive) | 11.3 µM (inactive) | 36.2 µM (inactive) | 15.4 µM (inactive) | 13.6 µM (inactive) | > 10 µM (inactive) | 26.2 µM (inactive) | 14.7 µM (inactive) | 29.9 µM (inactive)
9 | CCOC(=O)Oc1cc2c(c(OC)c1OC)-c1ccc(SC)c(=O)cc1C(NC(=O)C(F)(F)F)CC2 (stereo not given) | 0.00133 µM (active) | 0.00555 µM (active) | 0.00224 µM (active) | 0.1 µM (active) | < 0.001 µM (active) | 0.201 µM (active) | 0.0435 µM (active) | 0.00191 µM (active) | < 0.001 µM (active) | 0.0022 µM (active) | 0.00177 µM (active) | < 0.001 µM (active) | < 0.001 µM (active) | 0.00106 µM (active) | < 0.001 µM (active) | 0.026 µM (active) | 0.00196 µM (active) | < 0.001 µM (active) | < 0.001 µM (active) | < 0.001 µM (active)
10 | C=CC(=O)N1C/C(=C\c2ccc(F)cc2)C(=O)/C(=C/c2ccc(F)cc2)C1 | 0.568 µM (active) | 0.979 µM (active) | 0.259 µM (active) | 0.336 µM (active) | 0.0883 µM (active) | 0.887 µM (active) | 0.267 µM (active) | 0.516 µM (active) | 0.071 µM (active) | 0.437 µM (active) | 0.0925 µM (active) | 0.168 µM (active) | 0.735 µM (active) | 0.352 µM (active) | 0.36 µM (active) | 0.215 µM (active) | 0.206 µM (active) | 0.634 µM (active) | 0.811 µM (active) | 0.35 µM (active)
11 | NNc1nc2ccccc2c(=O)n1NC(=O)C(=O)Nc1cccc(C(F)(F)F)c1 | > 100 µM (inactive) | > 100 µM (inactive) | > 100 µM (inactive) | > 100 µM (inactive) | > 100 µM (inactive) | > 100 µM (inactive) | > 100 µM (inactive) | > 100 µM (inactive) | > 100 µM (inactive) | 47.6 µM (inactive) | > 100 µM (inactive) | > 100 µM (inactive) | > 100 µM (inactive) | > 100 µM (inactive) | > 100 µM (inactive) | > 100 µM (inactive) | > 100 µM (inactive) | > 100 µM (inactive) | > 100 µM (inactive) | > 100 µM (inactive)
12 | COc1cc(C)cc2c1c(=O)c1ccccc1n2C | 43.3 µM (inactive) | 40.4 µM (inactive) | 36 µM (inactive) | 37.9 µM (inactive) | 24.4 µM (inactive) | 55.3 µM (inactive) | 45.7 µM (inactive) | 41.4 µM (inactive) | 28.7 µM (inactive) | 42.1 µM (inactive) | 16.8 µM (inactive) | 16.4 µM (inactive) | 39.7 µM (inactive) | 33.5 µM (inactive) | 37.6 µM (inactive) | 29.2 µM (inactive) | 49.7 µM (inactive) | 42.6 µM (inactive) | 25 µM (inactive) | 41.7 µM (inactive)
13 | O=c1c2cccnc2[nH]c2ccc3[nH]ncc3c12 | 8.49 µM (inactive) | > 10 µM (inactive) | 5.13 µM (inactive) | > 10 µM (inactive) | > 10 µM (inactive) | 9.33 µM (inactive) | > 10 µM (inactive) | > 10 µM (inactive) | > 10 µM (inactive) | 6.11 µM (inactive) | 2.91 µM (inactive) | > 10 µM (inactive) | > 10 µM (inactive) | > 10 µM (inactive) | > 10 µM (inactive) | > 10 µM (inactive) | > 10 µM (inactive) | > 10 µM (inactive) | > 10 µM (inactive) | > 10 µM (inactive)
14 | O=C(Nc1ccccc1)c1cc(S(=O)(=O)Nc2n[nH]c(=O)[nH]2)c(SSc2cc(Cl)c(C(=O)Nc3ccccc3)cc2S(=O)(=O)Nc2n[nH]c(=O)[nH]2)cc1Cl | > 100 µM (inactive) | > 100 µM (inactive) | > 100 µM (inactive) | > 100 µM (inactive) | > 100 µM (inactive) | > 100 µM (inactive) | > 100 µM (inactive) | > 100 µM (inactive) | > 100 µM (inactive) | > 100 µM (inactive) | > 100 µM (inactive) | > 100 µM (inactive) | > 100 µM (inactive) | > 100 µM (inactive) | > 100 µM (inactive) | > 100 µM (inactive) | > 100 µM (inactive) | > 100 µM (inactive) | > 100 µM (inactive) | > 100 µM (inactive)
